Patent US7858635B2 (priority 2005, dated 2010)
Read-outs that look alike come from different tables or passages of the source.

Key:
[1] = molecular target: T1, M1 muscarinic receptor (Homo sapiens, UniProt P11229); test: Functional mobilization of intracellular calcium (FLIPR, Fluo-3), M1-CHO cells; format: cell-based; details: for Emax: 100% efficacy is the maximum response obtained with the Carbachol control, read-out: M1 Efficacy
T1 construct: expressed in transfected cells; host or cells: CHO cells (M1-CHO, under zeocin and G418 selection)
T1 sequence (P11229 1-460): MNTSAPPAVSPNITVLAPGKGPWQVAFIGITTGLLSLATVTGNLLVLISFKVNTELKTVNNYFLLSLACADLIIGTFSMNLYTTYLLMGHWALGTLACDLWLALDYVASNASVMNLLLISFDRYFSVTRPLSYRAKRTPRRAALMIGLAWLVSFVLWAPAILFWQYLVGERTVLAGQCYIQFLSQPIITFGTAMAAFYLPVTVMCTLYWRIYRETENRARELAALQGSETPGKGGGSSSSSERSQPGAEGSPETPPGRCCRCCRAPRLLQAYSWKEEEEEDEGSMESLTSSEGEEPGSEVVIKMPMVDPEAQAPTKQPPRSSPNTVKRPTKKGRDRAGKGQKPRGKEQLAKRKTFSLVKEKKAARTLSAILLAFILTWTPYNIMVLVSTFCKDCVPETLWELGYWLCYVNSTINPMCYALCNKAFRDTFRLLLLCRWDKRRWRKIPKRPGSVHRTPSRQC
Method: (§1) CHO cells expressing muscarinic receptors (M1 to M5) are grown as monolayers in tissue culture flasks at 37° C. in a humidified atmosphere containing 5% CO2 and passaged every 3-5 days. The growth media is Dulbecco's modified eagles medium (DMEM, Gibco Cat#12430-054), containing 25 mM Hepes and supplemented with Fetal Bovine Serum (Hyclone, cat# SH30071.03), 0.1 mM of MEM non-essential amino acids (GIBCO, Cat# 11140-050), 1 mM MEM Sodium Pyruvate (GIBCO Cat# 11360-070) and 100 units/ml of Penicillin G and 100 μg/ml of Streptomycin (GIBCO Cat# 15140-122). The recombinant muscarinic receptor cell lines are grown under antibiotic pressure with media containing 25 μm/ml zeocin and 500 μg/ml G418 (M1-CHO), 4 μg/ml puromycin, 50 μg/ml zeocin and 2.5 μm/ml blasticidin (M2 and M4-CHO) or 50 μg/ml zeocin and 4 μg/ml puromycin (M3 and M5-CHO).
(§2) Cells are harvested at 80-90% confluence using Versene (GIBCO Cat# 15040-066), collected by centrifugation and seeded 18-24 hrs prior to running the calcium assay at a density of 5,000-10,000 cells/well in […], clear-bottomed 384-well plates (BD Biocoat, poly-D-lysine, Cat#356663). The day of the experiment, the cells are washed with a plate washer (Bioteck Instruments, ELX 405) using bath1 buffer (140-mM NaCl, 4.5-mM KCL, 2-mM CaCl2, 1-mM MgCl2, 10-mM Hepes-Na, 10-mM Glucose, pH 7.4, with NaOH) containing 1 mM Probenecid. Next, the calcium dye Fluo-3 (25 μl/well of Fluo-3 μM at 4 μM, Molecular Probes F-1241, in Bath 1 buffer containing 1 mM Probenecid) is added to the 25 μl of Bath 1 remaining in each well after the plate wash and the dye is loaded at 37° C. in the tissue culture incubator for 60-90 min. The fluorescent dye is removed using the plate washer with Bath 1 containing 1 mM Probenecid, leaving 25 μl/well of this solution after the wash. Alternatively, cells can be loaded with the calcium indicator from Molecular Devices (Calcium 3 Assay Reagents, Cat # R7181) adding 5 μl of a 5× solution dye in Bath 1 containing 1 mM Probenecid (10 ml per dye flask cat# R7182 to generate a solution 20×) to 20 μl of the same buffer. After loading for 60 min, the experiment can be run without having to remove the dye.
(§3) Compounds are prepared at a 2× fold concentration in a 96-well plate (round bottom, Costar Corning cat# 3656), by reconstituting the pre-spotted compounds in bath 1 containing 1 mM probenecid. The final concentration DMSO is 0.5%, and the amount of DMSO is normalized across the assay plate. To determine an agonist action of the compounds on muscarinic receptors, the reconstituted compounds are added (25 μl compound/well) to the cell assay plate (containing 25 μl/well) using the multi-channel robotic system of the FLIPR 3 Instrument (Molecular Devices, Sunnyvale, Calif.). To determine a functional inhibitory action of the compounds on muscarinic receptors, the reconstituted compounds are added (25 μl compound/well) to the assay plate and pre-incubated for 15 min prior to adding 25 μl of Carbachol at 3× the EC80 for each muscarinic subtype. Alternatively, the compounds can be co-applied simultaneously with the agonist. In both assay modes, the fluorescence is recorded for 60 sec (excitation wavelength is […] and emission wavelength 540 nm) using the FLIPR 3 instrument.
(§4) The potency, efficacy and selectivity of the muscarinic compounds were evaluated by screening the compound activity across the whole family (M1 to M5 cells). Compounds were also screened for activity on other proteins such as other GPCRs and ion channels to determine selectivity on M4 receptors.

[2] = molecular target: T2, M4 muscarinic receptor (Homo sapiens, UniProt P08173); test: Functional mobilization of intracellular calcium (FLIPR, Fluo-3), M4-CHO cells; format: cell-based; details: for Emax: 100% efficacy is the maximum response obtained with the Carbachol control, read-out: M4 Efficacy
T2 construct: expressed in transfected cells; host or cells: CHO cells (M4-CHO, under puromycin, zeocin and blasticidin selection)
T2 sequence (P08173 1-479): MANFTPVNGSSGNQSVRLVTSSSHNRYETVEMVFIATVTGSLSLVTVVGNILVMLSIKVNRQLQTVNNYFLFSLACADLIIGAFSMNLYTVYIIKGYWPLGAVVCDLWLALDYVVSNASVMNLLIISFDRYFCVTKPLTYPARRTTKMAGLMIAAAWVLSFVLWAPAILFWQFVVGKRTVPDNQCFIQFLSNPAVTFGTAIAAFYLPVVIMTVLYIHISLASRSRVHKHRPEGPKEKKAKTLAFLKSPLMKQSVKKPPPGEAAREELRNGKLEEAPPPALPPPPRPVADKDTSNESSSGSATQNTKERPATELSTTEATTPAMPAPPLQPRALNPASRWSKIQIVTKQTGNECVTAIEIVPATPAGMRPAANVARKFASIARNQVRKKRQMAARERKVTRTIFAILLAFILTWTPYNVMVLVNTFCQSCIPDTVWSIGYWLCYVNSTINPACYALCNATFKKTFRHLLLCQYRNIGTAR
Method: as §1, §2, §3, §4

[3] = compound nos. 1-454, M1-CHO cells, calcium mobilization
[4] = compound nos. 1-454, M4-CHO cells, calcium mobilization

| SMILES | Emax ([1]; compound nos. 455-509) [%] | M1 Activity ([1]; compounds 455-509) | Emax ([2]; compound nos. 455-509) [%] | M4 Activity ([2]; compounds 455-509) | Emax ([1]; compound nos. 1-454) [%] | M1 Activity [1, 3] | Emax ([2]; compound nos. 1-454) [%] | M4 Activity [2, 4] | M1 Activity ([1]; compound nos. 1-454) | M4 Activity ([2]; compound nos. 1-454) |
| --- | --- | --- | --- | --- | --- | --- | --- | --- | --- | --- |
| CCc1cnc(N2CCC(N3CCC4(CC3)CN(C(=O)N(C)C)c3ccccc34)CC2)cn1 [compound 466] | > 100 | ++ (activity was measured to be between 2.0 μM and 5.0 μM) | 25 to 100 | ++ (activity was measured to be between 2.0 μM and 5.0 μM) | – | – | – | – | – | – |
| CCOC(=O)N1CCC(N2CCC3(CC2)CN(C(=O)c2cccnc2)c2ccc(F)cc23)CC1 [compound 144] | – | – | – | – | > 85 | +++ (activity was measured to be less than or equal to 0.7 μM) | > 70 | +++ (activity was measured to be less than or equal to 0.1 μM) | – | – |
| CCOC(=O)N1CCC(N2CCC3(CC2)CN(C(C)=O)c2ccc(-c4ccccc4C)cc23)CC1 [compound 78] | – | – | – | – | 65 to 85 | +++ (activity was measured to be less than or equal to 0.7 μM) | < 55 | ++ (activity was measured to be between 0.1 μM and 4.0 μM) | – | – |
| CC(=O)N[C@H]1CC2(CCN(C3C4CC5CC(C4)CC3C5)CC2)c2ccccc21 (stereo partly drawn) [compound 4] | – | – | – | – | < 65 | +++ (activity was measured to be less than or equal to 0.7 μM) | < 55 | + (activity was measured to be greater than or equal to 4.0 μM) | – | – |
| Cc1ncc(N2CCC(N3CCC4(CCN(C(=O)N(C)C)c5ccccc54)CC3)CC2)nc1C [compound 461] | > 100 | ++ (activity was measured to be between 2.0 μM and 5.0 μM) | 25 to 100 | ++ (activity was measured to be between 2.0 μM and 5.0 μM) | – | – | – | – | – | – |
| CN(C)C(=O)N1CC2(CCN(C3CCN(c4ccc(F)cc4)CC3)CC2)c2cc(F)ccc21 [compound 439] | – | – | – | – | 65 to 85 | – | < 55 | – | ++ (activity was measured to be between 0.7 μM and 3.0 μM) | +++ (activity was measured to be less than or equal to 0.1 μM) |
| O=C(O[C@@H]1CCOC1)N1CC2(CCN(C3CC4CCC(C3)N4C(=O)O[C@@H]3CCOC3)CC2)c2cc(F)ccc21 (stereo partly drawn) [compound 112] | – | – | – | – | 65 to 85 | +++ (activity was measured to be less than or equal to 0.7 μM) | < 55 | ++ (activity was measured to be between 0.1 μM and 4.0 μM) | – | – |
| O=C(O[C@@H]1CCOC1)N1CC2(CCN(C3CC4CCC(C3)N4C(=O)O[C@H]3CCOC3)CC2)c2cc(F)ccc21 (stereo partly drawn) [compound 93] | – | – | – | – | < 65 | ++ (activity was measured to be between 0.7 μM and 3.0 μM) | < 55 | ++ (activity was measured to be between 0.1 μM and 4.0 μM) | – | – |
| CN(C)C(=O)N1CC2(CCN(C3CC4CCC(C3)N4C(=O)O[C@H]3CCOC3)CC2)c2cc(F)ccc21 (stereo partly drawn) [compound 130] | – | – | – | – | < 65 | +++ (activity was measured to be less than or equal to 0.7 μM) | < 55 | ++ (activity was measured to be between 0.1 μM and 4.0 μM) | – | – |
| CCOC(=O)N1CCC(N2CCC3(CC2)CN(C(C)=O)c2ccc(-c4cccc(C#N)c4)cc23)CC1 [compound 373] | – | – | – | – | 65 to 85 | +++ (activity was measured to be less than or equal to 0.7 μM) | > 70 | ++ (activity was measured to be between 0.1 μM and 4.0 μM) | – | – |
| CC(=O)N1CCC2(CCN(C3CCN(c4nc(C)ns4)CC3)CC2)c2ccccc21 [compound 492] | > 100 | +++ (activity was measured to be less than or equal to 2.0 μM) | 25 to 100 | ++ (activity was measured to be between 2.0 μM and 5.0 μM) | – | – | – | – | – | – |
| CCOC(=O)N1C2CCC1CC(N1CCC3(CC1)CN(C(=O)c1cc(C)n(C)n1)c1ccc(F)cc13)C2 (stereo not drawn) [compound 50] | – | – | – | – | > 85 | +++ (activity was measured to be less than or equal to 0.7 μM) | > 70 | ++ (activity was measured to be between 0.1 μM and 4.0 μM) | – | – |
| Clc1ccc2c(c1)C1(CCN(C3CCC4CCC3C4)CC1)CN2 (stereo not drawn) [compound 348] | – | – | – | – | > 85 | +++ (activity was measured to be less than or equal to 0.7 μM) | > 70 | ++ (activity was measured to be between 0.1 μM and 4.0 μM) | – | – |
| CCc1nsc(N2CCC(N3CCC4(CC3)C[C@H](N(CC(F)(F)F)C(C)=O)c3ccccc34)CC2)n1 [compound 502] | 25 to 100 | ++ (activity was measured to be between 2.0 μM and 5.0 μM) | 25 to 100 | ++ (activity was measured to be between 2.0 μM and 5.0 μM) | – | – | – | – | – | – |
| O=C(O[C@@H]1CCOC1)N1C2CCC1CC(N1CCC3(CC1)COc1ccc(F)cc13)C2 (stereo partly drawn) [compound 338] | – | – | – | – | < 65 | + (activity was measured to be greater than or equal to 3.0 μM) | < 55 | + (activity was measured to be greater than or equal to 4.0 μM) | – | – |
